Source: patent US8017350B2, “Glimepiride- and insulin-induced glycosylphosphatidylinositol-specific phospholipase C regulation” (Sanofi-Aventis Deutschland GmbH, priority 2004, dated 2011)

Molecular target: T1, Lipoprotein lipase (LPL) from bovine milk (Bos taurus, UniProt P11151)
T1 construct: purchased SigmalAldrich (Deisenhofen, Germany); host or cells: bovine milk
Assay: lipoprotein lipase assay (radiolabeled triolein emulsion)
Type: biochemical
Details: 50 μM
Method: Hormone-sensitive lipase (HSL) and lipoprotein lipase (LPL) were measured using a radiolabeled triolein droplet emulsion as described in “Vertesy et al., (2002) Journal Antibiotics 55:480-494”. Pancreatic lipase (PL) was determined by incubation of 0.25 mmol tributyrin in 2 ml of 5 mM Tris/HCl (pH 6.5), 6 mM sodium taurodeoxycholate, 150 mM NaCl, 1 mM CaCl2 with porcine PL and colipase in the same buffer using a recording pH stat (stirring at 1000 rpm at 25° C.) with the pH adjusted to 6.5. PC-PLC was assayed by incubation of 0.2 ml of 10 mM dipalmitoyllecithin, 0.1 ml of 10 mM SDC and 0.1 ml of 0.03 M CaCl2 with bacterial PC-PLC (in 50 mM Tris/HCl, pH 7.5, 0.1% BSA) for 10 min at 37° C. The reaction was terminated by addition of 0.1 ml of 50% TCA and subsequently of 2.5 ml of […]. After centrifugation (1500×g, 15 min), 0.2-ml portions of the upper methanol/water phase (˜1.33 ml) were removed, supplemented with 0.5 ml of 60% HClO4, then heated at 170° C. for 1 h and finally analyzed for inorganic phosphate. Mammalian PI-PLC was measured by incubation of 0.1 ml of 10 mM PI, 0.1 ml of 0.8% sodium deoxycholate, 0.1% BSA, 0.2 ml of 100 mM sodium borate (pH 7.5) and rat liver PI-PLC for 20 min at 37° C. The reaction was terminated and further processed as described for the PC-PLC. […] Radioactive phosphatidic acid was detected by phosphorimaging. […]

T1 sequence (P11151 29-478): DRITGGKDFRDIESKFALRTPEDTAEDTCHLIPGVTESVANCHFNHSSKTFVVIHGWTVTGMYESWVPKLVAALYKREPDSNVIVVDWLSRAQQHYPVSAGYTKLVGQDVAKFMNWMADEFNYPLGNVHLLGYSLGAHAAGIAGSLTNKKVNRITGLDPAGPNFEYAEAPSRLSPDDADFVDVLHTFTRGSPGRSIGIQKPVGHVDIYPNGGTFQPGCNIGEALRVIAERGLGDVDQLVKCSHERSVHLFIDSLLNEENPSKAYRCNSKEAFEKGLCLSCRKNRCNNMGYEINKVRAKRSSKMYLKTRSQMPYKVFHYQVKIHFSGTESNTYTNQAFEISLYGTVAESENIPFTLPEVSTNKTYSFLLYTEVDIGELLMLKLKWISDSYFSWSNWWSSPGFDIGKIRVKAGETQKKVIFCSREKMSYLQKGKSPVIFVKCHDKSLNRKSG

**Q.** Which “effect on LPL” value does the source give for `CCCCCCCCCCCCP1(=O)O[C@@H]2[C@H](O)[C@@H](O)[C@H](O)[C@@H](O)[C@@H]2O1` (stereo partly shown) [GPI-2350, myo-inositol-1,2-cyclo-dodecylphosphonic acid] here?
**A.** not significantly affected
